Biological target: T1, rLacR (UA159) (Streptococcus mutans, UniProt P26422)
T1 sequence (P26422 1-251): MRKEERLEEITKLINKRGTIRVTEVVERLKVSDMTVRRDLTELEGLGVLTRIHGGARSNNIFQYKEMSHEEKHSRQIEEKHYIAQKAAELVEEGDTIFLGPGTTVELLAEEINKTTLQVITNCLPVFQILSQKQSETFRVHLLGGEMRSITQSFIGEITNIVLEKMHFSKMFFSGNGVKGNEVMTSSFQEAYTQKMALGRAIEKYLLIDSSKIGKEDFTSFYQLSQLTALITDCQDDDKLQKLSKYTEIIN
Assay: DNase I footprinting by capillary electrophoresis
Type: binding
Conditions: 5 mM; fluorescent UA159 lacA probe

In the case of `O=P(O)(O)OC[C@H]1OC(O)[C@H](O)[C@@H](O)[C@H]1O` (stereo partly shown) [Gal-6-P], the “DNase I footprinting by capillary electrophoresis (DFACE)” value is reported as “addition of Gal-6-P resulted in the appearance of a DNase I hyper-sensitive site”.
